From patent US20230087609A1, “USE OF A SOLUBLE GUANYLATE CYCLASE (sGC) STIMULATOR OR OF A COMBINATION OF A sGC STIMULATOR AND AN sGC ACTIVATOR FOR CONDITIONS WHEREIN THE HEME GROUP OF sGC IS OXIDIZED OR WHEREIN sGC IS DEFICIENT IN HEME” (Universiteit Maastricht, priority 2020, published 2023)
Entries after “also recorded” stand apart in the source; their conditions may differ.

Molecular target: T1, human sGCa1 and mutant sGCβ1H105F (apo-sGC) in Sf9 cells (Homo sapiens, UniProt Q02153, H105F)
T1 construct: His tag; expressed in transfected cells; host or cells: Sf9 cells co-infected with baculoviruses
T1 sequence (Q02153 1-619 H105F): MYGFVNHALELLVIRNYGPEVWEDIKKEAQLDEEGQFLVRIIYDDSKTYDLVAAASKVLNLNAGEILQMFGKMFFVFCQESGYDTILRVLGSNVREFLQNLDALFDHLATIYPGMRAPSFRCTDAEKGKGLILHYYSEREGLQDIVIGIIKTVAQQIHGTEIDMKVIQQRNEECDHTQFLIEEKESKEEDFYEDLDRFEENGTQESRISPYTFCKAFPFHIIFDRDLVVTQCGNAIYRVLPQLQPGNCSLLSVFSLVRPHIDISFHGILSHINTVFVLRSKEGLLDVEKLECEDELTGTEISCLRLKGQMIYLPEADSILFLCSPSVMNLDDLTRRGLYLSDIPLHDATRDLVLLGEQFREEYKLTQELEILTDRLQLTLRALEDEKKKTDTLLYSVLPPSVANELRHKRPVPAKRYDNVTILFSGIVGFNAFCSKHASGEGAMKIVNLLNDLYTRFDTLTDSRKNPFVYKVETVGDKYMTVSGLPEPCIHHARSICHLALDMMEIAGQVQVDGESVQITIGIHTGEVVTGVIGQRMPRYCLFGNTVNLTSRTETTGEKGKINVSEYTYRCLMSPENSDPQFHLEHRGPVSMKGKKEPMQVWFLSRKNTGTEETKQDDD
T1 sequence (Q02108 1-690 partner): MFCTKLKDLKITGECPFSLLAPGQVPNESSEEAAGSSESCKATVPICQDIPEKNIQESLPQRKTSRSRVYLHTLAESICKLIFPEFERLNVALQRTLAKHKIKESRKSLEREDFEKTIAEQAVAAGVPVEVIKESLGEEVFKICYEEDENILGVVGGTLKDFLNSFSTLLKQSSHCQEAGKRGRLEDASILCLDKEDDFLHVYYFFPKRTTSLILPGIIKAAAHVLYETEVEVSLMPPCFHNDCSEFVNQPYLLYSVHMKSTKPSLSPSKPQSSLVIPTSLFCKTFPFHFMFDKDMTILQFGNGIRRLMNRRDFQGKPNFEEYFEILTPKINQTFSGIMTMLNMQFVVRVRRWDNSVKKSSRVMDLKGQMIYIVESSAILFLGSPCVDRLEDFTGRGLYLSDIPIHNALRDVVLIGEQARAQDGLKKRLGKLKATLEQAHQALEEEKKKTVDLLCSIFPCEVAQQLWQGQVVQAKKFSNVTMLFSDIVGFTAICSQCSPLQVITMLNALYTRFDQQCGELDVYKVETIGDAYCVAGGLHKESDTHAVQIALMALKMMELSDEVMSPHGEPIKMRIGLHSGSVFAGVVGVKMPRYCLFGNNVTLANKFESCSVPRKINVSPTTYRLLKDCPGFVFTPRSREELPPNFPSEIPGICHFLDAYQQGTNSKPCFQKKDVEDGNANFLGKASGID
Assay: cGMP accumulation in intact Sf9 cells expressing apo-sGC
Assay type: cell-based
Details: for cGMP formation, sGC stimulator combined with NO donor: 30 micromole/L Bay 41-2272 + 10 micromole/L DETA-NONOate (FIG. 12A, B); for cGMP formation, sGC stimulator only: 30 micromole/L Bay 41-2272 alone (FIG. 12A)
Experimental: Sf9 cells were co-infected with baculoviruses expressing human sGCa1 and mutant sGCβ1H105F. Forty-eight hours post-infection, the cells were treated with vehicle, NO donor, sGC stimulator, sGC activator or combination in 2 ml final volume of 10^6 cells per ml then the cells were incubated for 10 min at 27° C. The reaction was terminated by the addition of 0.1M of HCl, and cGMP was extracted on ice for 20 min. Cells were then sonicated to ensure complete lysis. The extract was then centrifuged and used for cGMP determination by an ELISA (Enzo Life Sciences).
Forty-eight hours post-infection, the cells were treated with vehicle, NO donor, sGC stimulator, sGC activator or combination in 2 ml final volume of 10^6 cells per ml and subsequently, the cells were incubated for 10 minutes at 27° C. The reaction was terminated by the addition of 0.1M of HCl, and cGMP was extracted on ice for 20 minutes. Cells were then sonicated to ensure complete lysis. The obtained cell extract was then centrifuged and used for cGMP determination by an ELISA. […] In the absence of any of the NO donor, the sGCs or the combination of these compounds, no cGMP synthesis is detected. It is now for the first time shown by the inventors that apo-sGC is still activatable even in the absence of an sGC activator known in the art. The presence of the sGCs facilitates NO binding to a secondary, heme-independent NO binding-site, and in addition, presence of an NO donor acts synergistically, when cGMP production is considered. Due to the invention, it is now made possible to treat patients with an sGCs, resulting in cGMP formation, under conditions wherein treatment with sGC activators has no effect at all or a too small effect, e.g. under conditions of ischemia, neonatal asphyxia, stroke, hypoxia, acute respiratory distress syndrome, asthma, oxidative (organ and/or tissue and/or cell) damage, etc. The invention provides a new treatment modality for these patients, which are often not sensitive (enough) for sGCa treatment. […] C.

Nc1nc(-c2nn(Cc3ccccc3F)c3ncccc23)ncc1C1CC1 [BAY 41-2272, 5-cyclopropyl-2-[1-(2-fluoro-benzyl)-1H-pyrazolo[3,4-b]pyridin-3-yl]-pyrimidin-4-ylamine] was tested, and the “cGMP formation, sGC stimulator combined with NO donor” value (listed as Bay 41-2272) was “synergistic increase in cGMP formation”, the “cGMP formation, sGC stimulator combined with NO donor” value (listed as Bay41-2272) was “more than double amount of cGMP; also recorded: synergistic increase in cGMP formation” and the “cGMP formation, sGC stimulator only” value (listed as Bay 41-2272) was “increase in cGMP formation”. The “cGMP formation, sGC stimulator only” value (listed as Bay41-2272) was “resulted in cGMP production; also recorded: increase in cGMP formation”.
